Results taken from patent US10072023B2, “Diarylethene compounds and uses thereof” (SWITCH MATERIALS, INC., priority 2011, dated 2018).

How the values were obtained:
Format in all cases: physicochemical
[1] = Absorbance at photostationary state (PSS) under simulated sunlight or 365 nm light; set-up: λ max: unit not given here; details: for Absorbance at PSS, 365 nm: 365 nm light source; for Absorbance at PSS, 365 nm / Absorbance at PSS, full / Absorbance at PSS, +UV / λ max: 2.0×10^−5 M in triglyme; for sensitivity index: ratio of PSS under 365 nm light to PSS under full spectrum light (without UV blocking film); for Absorbance at PSS, full: simulated sunlight (QSUN solar simulator), no UV blocking film; for Absorbance at PSS, +UV: simulated sunlight with UV blocking film (cutoff 370 nm); for λ max: wavelength of maximum absorbance in the visible range, ring-closed isoform
Procedure, shortened: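 Compounds at 2.0×10^−5 M in triglyme, photofaded with visible light, then irradiated with simulated sunlight (xenon arc) or 365 nm light until the UV/Vis spectrum stabilized. Also irradiated through a UV-blocking film (370 nm cutoff); sensitivity index is PSS under 365 nm divided by PSS under full spectrum.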

[2] = Solubility in indicated solvent; details: % wt soluble in triglyme
Excerpt: A compound with greater solubility allows for a formulation or material with a greater concentration of coloured molecule to be incorporated into a composition. This may allow for increasing the contrast ratio for a compound with a lesser absorbance at PSS. Inclusion of a solubilizing group in a compound according to various embodiments of the invention may increase solubility. Examples of solubilizing groups may include alkoxy or siloxy groups.

[3] = PSS and light composition (sunlight vs interior lighting); details: 2×10^−4 M in triglyme
Excerpt: The difference in PSS as a function of light source type was investigated. The light sources included direct sunlight (filtered through window glass) and interior lighting. Irradiance information and spectral profiles of light sources are provided in Table 9 and FIG. 2, respectively. Six compounds (2×10^−4 M solutions of S096, S094, S079, S044, S042 and S035 in triglyme) were investigated and compared for performance on the basis of maximum difference in darkening ability between sunlight and interior lighting conditions. Darkening ability is indicated by the absorbance at λmax in the visible light spectrum for the ring-closed isomer of the chromophore.
Samples were then moved away from the window (300 cm from window, with interior lighting on) to alter the light composition by reducing the sunlight component. […] Finally, samples were again irradiated to the darkest state under sunlight conditions (20 cm from window) and then subjected to interior lighting conditions only (sunlight blocked out with blinds), allowing the samples to fade to a lower PSS specific to these lighting conditions as shown in FIG. 3.
Sample darkening times were less than one minute, while sample photofading times ranged as high as 20 minutes. […]

| Compound | Absorbance at PSS, 365 nm [1] | sensitivity index [1] | Absorbance at PSS, full [1] | Absorbance at PSS, +UV [1] | λ max [1] | Solubility [2] | change in degree of coloration in response to variation in the light source [3] |
| --- | --- | --- | --- | --- | --- | --- | --- |
| CC(C)(C)c1ccc(-c2cc(C3=C(c4cc(-c5ccc(C(C)(C)C)cc5)sc4-c4ccc(C(C)(C)C)cc4)C(F)(F)C(F)(F)C3(F)F)c(-c3ccc(C(C)(C)C)cc3)s2)cc1 [S042] | 0.233 | 2.40 | 0.097 | 0.04 | 612 | 0.5 % wt | greatest change in degree of coloration |
| CC(C)CCOc1ccc(-c2cc(C3=C(c4cc(-c5ccc(OCCC(C)C)cc5)sc4-c4ccc(OCCC(C)C)cc4)C(F)(F)C(F)(F)C3(F)F)c(-c3ccc(OCCC(C)C)cc3)s2)cc1 [S094, 3,3′-(perfluorocyclopent-1-ene-1,2-diyl)bis(2,5-bis(4-(isopentyloxy)phenyl)thiophene)] | 0.311 | 1.74 | 0.179 | 0.103 | 625 | – | greatest change in degree of coloration |
| COCCOCCOCCOc1ccc(-c2sc(-c3ccc(C(C)(C)C)s3)cc2C2=C(c3cc(-c4ccc(C(C)(C)C)s4)sc3-c3ccc(OCCOCCOCCOC)cc3)C(F)(F)C(F)(F)C2(F)F)cc1 [S108] | 0.374 | 1.28 | 0.292 | 0.215 | 645 | >25 % wt | – |
| CCOCCOCCOCCOc1ccc(-c2sc(-c3ccc(C(C)(C)C)s3)cc2C2=C(c3cc(-c4ccc(C(C)(C)C)s4)sc3-c3ccc(OCCOCCOCCOCC)cc3)C(F)(F)C(F)(F)C2(F)F)cc1 [S109, 4,4″-(perfluorocyclopent-1-ene-1,2-diyl)bis(5′-(tert-butyl)-5-(4-(2-(2-(2-ethoxyethoxy)ethoxy)ethoxy)phenyl)-2,2′-bithiophene)] | 0.367 | 1.24 | 0.296 | 0.217 | 645 | >25 % wt | – |
| CCOCCOCCOCCOC(CC)(CC)c1ccc(-c2sc(-c3ccc(C(C)(C)C)s3)cc2C2=C(c3cc(-c4ccc(C(C)(C)C)s4)sc3-c3ccc(C(CC)(CC)OCCOCCOCCOCC)s3)C(F)(F)C(F)(F)C2(F)F)s1 [S128, 13,13′-(3′,3″″-(perfluorocyclopent-1-ene-1,2-diyl)bis(5″-(tert-butyl)-[2,2′: 5′,2″-terthiophene]-5,3′-diyl))bis(13-ethyl-3,6,9,12-tetraoxapentadecane)] | 0.403 | 1.53 | 0.264 | 0.224 | 648 | >25 % wt | – |
| COCCC[Si](CCCOC)(CCCOC)c1ccc(-c2cc(C3=C(c4cc(-c5ccc([Si](CCCOC)(CCCOC)CCCOC)s5)sc4-c4ccc([Si](CCCOC)(CCCOC)CCCOC)s4)C(F)(F)C(F)(F)C3(F)F)c(-c3ccc([Si](CCCOC)(CCCOC)CCCOC)s3)s2)s1 [S138] | 0.337 | 1.10 | 0.306 | 0.262 | 650 | >20 % wt | – |
| COCCC[Si](CCCOC)(CCCOC)c1ccc(-c2sc(-c3ccc(C(C)(C)C)s3)cc2C2=C(c3cc(-c4ccc(C(C)(C)C)s4)sc3-c3ccc([Si](CCCOC)(CCCOC)CCCOC)s3)C(F)(F)C(F)(F)C2(F)F)s1 [S158] | 0.394 | 1.15 | 0.342 | 0.291 | 650 | >20 % wt | – |
